Assay results published in US11185078B2 (priority 2016, dated 2021).
Where a SMILES comes first, the peptide text is derived from it. Bridges are numbered along the chain shown (N, C = ends). The star is where a group is joined. ξ: configuration not given here. Pentadecanoyl(3ξ-OH,15-Gua) = N=C(N)NCCCCCCCCCCCCC(O)CC(=O)*

Legend:
Assay type in all cases: in vivo
[1] = test system: Phytophthora infestans (PHYTIN); conditions: for % efficacy (% fungal attack) PHYTIN: 360 ppm, in planta
[2] = test system: Septoria tritici (SEPTTR); conditions: 360 ppm, protective application
[3] = test system: Fusarium graminearum (GIBBZE); conditions: 360 ppm

CCC(C)C1NC(=O)C(NC(=O)CC(O)CCCCCCCCCCCCNC(=N)N)C(C)OC(=O)C(C)NC(=O)C(CCC(N)=O)NC(=O)C(C(C)O)NC(=O)C(Cc2ccc(O)cc2)NC1=O (stereo not drawn) [Compound 1B, fusaricidin 1B] ({Pentadecanoyl(3ξ-OH,15-Gua)}-TIYTQA; ester 1-C; configuration not given here)
% efficacy (% fungal attack), late blight on tomato caused by Phytophthora infestans ([1]; 7.2 ppm, protective application): 44% | % efficacy (% fungal attack) PHYTIN [1]: 100% | % efficacy (% fungal attack), head blight on wheat caused by Septoria tritici [2]: 80%

CCC(C)C1NC(=O)C(NC(=O)CC(O)CCCCCCCCCCCCNC(=N)N)C(C)OC(=O)C(C)NC(=O)C(CC(N)=O)NC(=O)C(C(C)O)NC(=O)C(Cc2ccc(O)cc2)NC1=O (stereo not drawn) [Compound 1A, fusaricidin 1A] ({Pentadecanoyl(3ξ-OH,15-Gua)}-TIYTNA; ester 1-C; configuration not given here)
% efficacy (% fungal attack) GIBBZE ([3]; in planta): 49% | % efficacy (% fungal attack), head blight on wheat caused by Fusarium graminearum ([3]; protective application): 49% | % efficacy (% fungal attack) PHYTIN [1]: 100%
